Data published in ChEMBL document CHEMBL1909046, “DrugMatrix in vitro pharmacology data”.

Columns and labels:
Interstitial collagenase = target: T1, Interstitial collagenase (Homo sapiens, UniProt P03956); assay: biochemical; format: tissue-based, Rheumatoid synovial fibroblasts;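 also: MMP-1 enzyme inhibition assay using a peptide substrate; in other assays of this panel Not Active means under 50% inhibition at 10 µM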
T1 sequence (P03956 whole entry): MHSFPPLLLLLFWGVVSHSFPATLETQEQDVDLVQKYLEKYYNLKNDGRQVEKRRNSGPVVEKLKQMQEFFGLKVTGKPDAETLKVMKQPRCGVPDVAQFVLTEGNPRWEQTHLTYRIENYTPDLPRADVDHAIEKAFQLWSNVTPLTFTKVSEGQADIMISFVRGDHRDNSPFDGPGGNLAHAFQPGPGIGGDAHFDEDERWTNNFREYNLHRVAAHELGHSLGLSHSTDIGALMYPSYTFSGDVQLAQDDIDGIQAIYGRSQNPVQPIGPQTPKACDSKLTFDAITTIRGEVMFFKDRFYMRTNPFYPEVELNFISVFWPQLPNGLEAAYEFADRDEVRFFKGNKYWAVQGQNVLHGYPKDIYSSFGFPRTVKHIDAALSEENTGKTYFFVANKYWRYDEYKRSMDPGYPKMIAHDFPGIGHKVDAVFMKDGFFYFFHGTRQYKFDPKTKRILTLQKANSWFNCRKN

Substance-P receptor = Substance-P receptor (Homo sapiens, UniProt P25103); format: cell membranes, Membrane; conditions: cho; also: in other assays of this panel Not Active means under 50% inhibition at 10 µM
[1] = DRUGMATRIX: Sigma2 radioligand binding (ligand: [3H] Ifenprodil); format: cell membranes, Rattus norvegicus, Wistar, Brain, Membrane; conditions: Not Active = under 50% inhibition at 10 µM
Substance-K receptor = target: T2, Substance-K receptor (Homo sapiens, UniProt P21452); format: cell membranes, CHO, Membrane; conditions: cho; also: in other assays of this panel Not Active means under 50% inhibition at 10 µM
T2 sequence (P21452 whole entry): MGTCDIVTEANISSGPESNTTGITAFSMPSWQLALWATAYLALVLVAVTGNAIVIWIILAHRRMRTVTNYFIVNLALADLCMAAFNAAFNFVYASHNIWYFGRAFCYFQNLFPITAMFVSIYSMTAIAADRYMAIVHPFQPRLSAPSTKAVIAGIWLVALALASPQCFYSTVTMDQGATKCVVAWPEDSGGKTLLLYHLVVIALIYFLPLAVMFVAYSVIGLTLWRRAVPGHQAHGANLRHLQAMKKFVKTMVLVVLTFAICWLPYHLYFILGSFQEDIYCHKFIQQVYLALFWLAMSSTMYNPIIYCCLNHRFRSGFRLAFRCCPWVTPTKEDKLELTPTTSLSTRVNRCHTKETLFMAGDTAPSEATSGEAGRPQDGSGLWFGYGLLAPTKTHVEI

Cytochrome P450 3A4 = Cytochrome P450 3A4 (Homo sapiens, UniProt P08684); conditions: bti-tn-5b1-4; also: in other assays of this panel Not Active means under 50% inhibition at 10 µM
[2] = target: C-C chemokine receptor type 2 (Homo sapiens, UniProt P41597); format: cell membranes, CHO-K1, Membrane; conditions: cho-k1; also: in other assays of this panel Not Active means under 50% inhibition at 10 µM
Sequence of C-C chemokine receptor type 2 (P41597 whole entry): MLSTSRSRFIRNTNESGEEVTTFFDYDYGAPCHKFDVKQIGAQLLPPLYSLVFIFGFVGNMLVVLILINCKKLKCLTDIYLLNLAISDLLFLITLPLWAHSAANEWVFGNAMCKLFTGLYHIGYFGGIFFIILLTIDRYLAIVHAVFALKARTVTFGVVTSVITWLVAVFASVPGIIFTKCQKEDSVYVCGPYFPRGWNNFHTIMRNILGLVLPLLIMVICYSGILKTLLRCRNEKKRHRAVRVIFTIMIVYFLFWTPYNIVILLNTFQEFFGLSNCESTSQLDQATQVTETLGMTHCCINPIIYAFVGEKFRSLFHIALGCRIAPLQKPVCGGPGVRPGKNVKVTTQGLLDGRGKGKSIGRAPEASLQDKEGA

Sequence of Substance-P receptor (P25103 whole entry): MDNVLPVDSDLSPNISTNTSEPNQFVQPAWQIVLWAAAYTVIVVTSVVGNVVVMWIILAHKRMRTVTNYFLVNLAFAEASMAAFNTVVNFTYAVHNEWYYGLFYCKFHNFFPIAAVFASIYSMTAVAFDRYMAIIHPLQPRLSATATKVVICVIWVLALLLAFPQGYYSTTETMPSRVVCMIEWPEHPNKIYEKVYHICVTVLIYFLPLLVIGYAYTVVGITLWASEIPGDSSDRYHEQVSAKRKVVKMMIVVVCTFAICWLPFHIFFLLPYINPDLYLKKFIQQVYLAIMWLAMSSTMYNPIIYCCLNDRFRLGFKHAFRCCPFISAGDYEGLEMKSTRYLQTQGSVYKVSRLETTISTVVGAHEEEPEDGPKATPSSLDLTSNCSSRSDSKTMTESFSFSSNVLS
Sequence of Cytochrome P450 3A4 (P08684 whole entry): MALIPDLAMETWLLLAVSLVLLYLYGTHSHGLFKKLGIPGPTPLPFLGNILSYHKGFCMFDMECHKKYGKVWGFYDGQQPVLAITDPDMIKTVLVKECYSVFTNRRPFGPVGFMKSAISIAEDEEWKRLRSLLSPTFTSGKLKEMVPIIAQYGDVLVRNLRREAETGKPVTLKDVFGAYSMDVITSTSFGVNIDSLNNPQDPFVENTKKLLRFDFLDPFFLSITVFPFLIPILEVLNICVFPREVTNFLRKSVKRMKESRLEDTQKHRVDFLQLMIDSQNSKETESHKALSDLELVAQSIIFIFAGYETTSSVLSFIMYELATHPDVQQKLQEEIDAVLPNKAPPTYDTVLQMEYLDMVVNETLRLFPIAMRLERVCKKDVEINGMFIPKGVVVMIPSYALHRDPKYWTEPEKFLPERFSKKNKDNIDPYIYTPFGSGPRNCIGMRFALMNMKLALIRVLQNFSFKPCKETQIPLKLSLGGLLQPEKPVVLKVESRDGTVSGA

Molecule | IC50 (Interstitial collagenase) | IC50 (Substance-P receptor) | IC50 [1] | Ki [1] | IC50 (Substance-K receptor) | IC50 (Cytochrome P450 3A4) | Ki (Cytochrome P450 3A4) | IC50 [2] | IC50 (Interstitial collagenase; read-out: IC50) | IC50 ([1]; read-out: IC50) | Ki ([1]; read-out: Ki) | Ki (Interstitial collagenase) | Ki (Substance-P receptor) | Ki (Substance-K receptor) | Ki [2]
Cc1ccc(S(=O)(=O)NC(=O)NN2CC3CCCC3C2)cc1 (stereo not given) [GLICLAZIDE] | Not Active | Not Active | Not Active | Not Active | Not Active | Not Active | Not Active | Not Active | – | – | – | – | – | – | –
CC(C)Cc1ccc(C(C)C(=O)O)cc1 (stereo not given) [IBUPROFEN] | Not Active | Not Active | Not Active | Not Active | Not Active | Not Active | Not Active | Not Active | – | – | – | – | – | – | –
COc1ccc2c(c1)c(CC(=O)O)c(C)n2C(=O)c1ccc(Cl)cc1 [INDOMETHACIN] | Not Active | Not Active | Not Active | Not Active | Not Active | Not Active | Not Active | Not Active | – | – | – | – | – | – | –
CCc1c2c(nc3ccc(OC(=O)N4CCC(N5CCCCC5)CC4)cc13)-c1cc3c(c(=O)n1C2)COC(=O)[C@]3(O)CC [IRINOTECAN] | – | Not Active | Not Active | Not Active | Not Active | Not Active | Not Active | Not Active | 6060 nM | – | – | – | – | – | –
CC(C(=O)O)c1cccc(C(=O)c2ccccc2)c1 (stereo not given) [KETOPROFEN] | Not Active | Not Active | Not Active | Not Active | Not Active | Not Active | Not Active | Not Active | – | – | – | – | – | – | –
Nc1ccn([C@@H]2CS[C@H](CO)O2)c(=O)n1 [LAMIVUDINE] | Not Active | Not Active | Not Active | Not Active | Not Active | Not Active | Not Active | Not Active | – | – | – | – | – | – | –
O=S(=O)([O-])CCS.[Na+] [MESNA] | Not Active | Not Active | Not Active | Not Active | Not Active | Not Active | Not Active | Not Active | – | – | – | – | – | – | –
C#C[C@]1(O)CC[C@H]2[C@@H]3CCc4cc(OC)ccc4[C@H]3CC[C@@]21C [MESTRANOL] | Not Active | Not Active | Not Active | Not Active | Not Active | Not Active | Not Active | Not Active | – | – | – | – | – | – | –
CC(=O)Nc1cccc(O)c1 [METACETAMOL] | Not Active | Not Active | Not Active | Not Active | Not Active | Not Active | Not Active | Not Active | – | – | – | – | – | – | –
Cc1ncc([N+](=O)[O-])n1CCO [METRONIDAZOLE] | Not Active | Not Active | Not Active | Not Active | Not Active | Not Active | Not Active | Not Active | – | – | – | – | – | – | –
Oc1ccc(OCc2ccccc2)cc1 [MONOBENZONE] | Not Active | Not Active | Not Active | Not Active | Not Active | Not Active | Not Active | Not Active | – | – | – | – | – | – | –
CC(C)(Oc1ccc(C2CCCc3ccccc32)cc1)C(=O)O (stereo not given) [NAFENOPIN] | Not Active | Not Active | Not Active | Not Active | Not Active | Not Active | Not Active | Not Active | – | – | – | – | – | – | –
CC(C)[C@H]1CC[C@H](C(=O)N[C@H](Cc2ccccc2)C(=O)O)CC1 [NATEGLINIDE] | Not Active | Not Active | Not Active | Not Active | Not Active | Not Active | Not Active | Not Active | – | – | – | – | – | – | –
CCN[C@@H]1C[C@H](N)[C@@H](O[C@H]2OC(CN)=CC[C@H]2N)[C@H](O)[C@H]1O[C@H]1OC[C@](C)(O)[C@H](NC)[C@H]1O [NETILMICIN] | Not Active | Not Active | Not Active | Not Active | Not Active | Not Active | Not Active | Not Active | – | – | – | – | – | – | –
CCOC(=O)C1=C(C)NC(C)=C(C(=O)OC)C1c1cccc([N+](=O)[O-])c1 (stereo not given) [NITRENDIPINE] | Not Active | Not Active | Not Active | Not Active | Not Active | Not Active | Not Active | Not Active | – | – | – | – | – | – | –
C#C[C@]1(OC(C)=O)CC[C@H]2[C@@H]3CCC4=CC(=O)CC[C@@H]4[C@H]3CC[C@@]21C [NORETHINDRONE ACETATE] | Not Active | Not Active | Not Active | Not Active | Not Active | Not Active | Not Active | Not Active | – | – | – | – | – | – | –
COc1ccc2[nH]c([S+]([O-])Cc3ncc(C)c(OC)c3C)nc2c1 (stereo not given) [OMEPRAZOLE] | Not Active | Not Active | Not Active | Not Active | Not Active | Not Active | Not Active | Not Active | – | – | – | – | – | – | –
Cc1nccn1CC1CCc2c(c3ccccc3n2C)C1=O (stereo not given) [ONDANSETRON] | Not Active | Not Active | Not Active | Not Active | Not Active | Not Active | Not Active | Not Active | – | – | – | – | – | – | –
CCCCOc1ccc(OCCCN2CCOCC2)cc1 [PRAMOXINE] | Not Active | Not Active | – | – | Not Active | Not Active | Not Active | Not Active | – | 1030 nM | 633 nM | – | – | – | –
O=C(C1CCCCC1)N1CC(=O)N2CCc3ccccc3C2C1 (stereo not given) [PRAZIQUANTEL] | Not Active | Not Active | Not Active | Not Active | Not Active | Not Active | Not Active | Not Active | – | – | – | – | – | – | –
CCN(CC)CCOC(=O)c1ccc(N)cc1 [PROCAINE] | Not Active | Not Active | Not Active | Not Active | Not Active | Not Active | Not Active | Not Active | – | – | – | – | – | – | –
CCCN(CCC)C(=O)C(CCC(=O)O)NC(=O)c1ccccc1 (stereo not given) [PROGLUMIDE] | Not Active | Not Active | Not Active | Not Active | Not Active | Not Active | Not Active | Not Active | – | – | – | – | – | – | –
NC(=O)c1cnccn1 [PYRAZINAMIDE] | Not Active | Not Active | Not Active | Not Active | Not Active | Not Active | Not Active | Not Active | – | – | – | – | – | – | –
OC(CCN1CCCCC1)(c1ccccc1)C1CCCCC1 (stereo not given) [TRIHEXYPHENIDYL] | Not Active | Not Active | – | – | Not Active | Not Active | Not Active | Not Active | – | 3120 nM | 1920 nM | – | – | – | –
Cc1cc2cc3c(C)cc(=O)oc3c(C)c2o1 [TRIOXSALEN] | Not Active | Not Active | Not Active | Not Active | Not Active | Not Active | Not Active | Not Active | – | – | – | – | – | – | –
CCCC(CCC)C(=O)O [VALPROIC ACID] | Not Active | Not Active | Not Active | Not Active | Not Active | Not Active | Not Active | Not Active | – | – | – | – | – | – | –
CADMIUM DICHLORIDE | Not Active | Not Active | Not Active | Not Active | Not Active | Not Active | Not Active | Not Active | – | – | – | Not Active | Not Active | Not Active | Not Active
